Data as given in patent US9302999B2, “Substituted triazoles as herbicides” (E. I. DU PONT DE NEMOURS AND COMPANY, priority 2012, dated 2016).

What was measured:
Type in all cases: in vivo
[1] = system: foxtail, green (green foxtail, Setaria viridis); experiment: Test C pre-/postemergence: foxtail, green
Method in brief: (§1)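 Preemergence on seeds in loam/sand, postemergence on 2–18 cm (1–4-leaf) plants in peat-based medium; compounds in non-phytotoxic solvent with surfactant. After 13–15 days in greenhouse, visual rating versus controls, 0 (no effect) to 100 (complete control).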

[2] = system: barley (winter barley, Hordeum vulgare); experiment: Test C postemergence: barley
Method in brief: (§2)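 Greenhouse pot test; foliar postemergence treatment at 1- to 4-leaf stage. Rated visually at 13 to 15 days on a 0–100 control scale relative to untreated plants.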

[3] = system: canarygrass (Phalaris minor); experiment: Test C postemergence: canarygrass
Method in brief: as §2

[4] = system: cocklebur (common cocklebur, Xanthium strumarium); experiment: Test C pre-/postemergence: cocklebur
Method in brief: as §1

[5] = system: bromegrass, downy (downy bromegrass, Bromus tectorum); experiment: Test C pre-/postemergence: bromegrass, downy
Method in brief: as §1

[6] = system: common (oilseed) sunflower (Helianthus annuus); experiment: Test C pre-/postemergence: sunflower; conditions: Preemergence
Method in brief: as §1

[7] = system: nightshade (eastern black nightshade, Solanum ptycanthum); experiment: Test C pre-/postemergence: nightshade; conditions: Preemergence
Method in brief: as §1

[8] = system: goosegrass (Eleusine indica); experiment: Test C pre-/postemergence: goosegrass
Method in brief: as §1

[9] = system: windgrass (Apera spica-venti); experiment: Test C postemergence: windgrass
Method in brief: as §2

[10] = Postemergence, 31 g ai/ha, scale 0 to 100 (0 no effect, 100 complete control)
[11] = Postemergence, 62 g ai/ha, scale 0 to 100 (0 no effect, 100 complete control)
[12] = Postemergence, 125 g ai/ha, scale 0 to 100, 0 no effect, 100 complete control
[13] = Postemergence, 250 g ai/ha, scale 0 to 100
[14] = Preemergence, 31 g ai/ha, scale of 0 to 100, 0 is no effect, 100 is complete control
[15] = Preemergence, 62 g ai/ha, scale of 0 to 100, 0 is no effect, 100 is complete control
[16] = Preemergence, 125 g ai/ha, scale 0 to 100, 0 no effect, 100 complete control
[17] = Preemergence, 250 g ai/ha, scale 0 to 100, 0 no effect, 100 complete control
[18] = 31 g ai/ha, scale 0 to 100 (0 no effect, 100 complete control)
[19] = 62 g ai/ha, scale 0 to 100 (0 no effect, 100 complete control)
[20] = 125 g ai/ha, scale 0 to 100, 0 no effect, 100 complete control
[21] = Preemergence, 62 g ai/ha, scale 0 to 100, 0 no effect, 100 complete control
[22] = 31 g ai/ha, scale of 0 to 100, 0 is no effect, 100 is complete control
[23] = 62 g ai/ha, scale of 0 to 100, 0 is no effect, 100 is complete control
[24] = 250 g ai/ha, scale 0 to 100, 0 no effect, 100 complete control

SMILES: Cc1nn(-c2ccc(C(F)(F)F)cc2)nc1Oc1ccnc(C(F)(F)F)c1 [Compound 120]
- Plant response rating, Foxtail, Green [1, 10]: 15
- Plant response rating, Foxtail, Green [1, 11]: 85
- Plant response rating, Foxtail, Green [1, 12]: 100
- Plant response rating, Foxtail, Green [1, 13]: 100
- Plant response rating, Foxtail, Green [1, 14]: 90
- Plant response rating, Foxtail, Green [1, 15]: 90
- Plant response rating, Foxtail, Green [1, 16]: 90
- Plant response rating, Foxtail, Green [1, 17]: 90
- Plant response rating, Barley [2, 18]: 20
- Plant response rating, Barley [2, 19]: 30
- Plant response rating, Barley [2, 20]: 40
- Plant response rating, Barley ([2]; 250 g ai/ha, scale 0 to 100): 55
- Plant response rating, Canarygrass [3, 18]: 25
- Plant response rating, Canarygrass [3, 19]: 35
- Plant response rating, Canarygrass [3, 20]: 60
- Plant response rating, Canarygrass ([3]; 250 g ai/ha, scale 0 to 100): 90
- Plant response rating, Cocklebur [4, 10]: 45
- Plant response rating, Cocklebur [4, 11]: 50
- Plant response rating, Cocklebur [4, 12]: 65
- Plant response rating, Cocklebur [4, 13]: 65
- Plant response rating, Cocklebur [4, 14]: 0
- Plant response rating, Cocklebur [4, 21]: 0
- Plant response rating, Cocklebur [4, 17]: 5
- Plant response rating, Bromegrass, Downy [5, 10]: 15
- Plant response rating, Bromegrass, Downy [5, 11]: 15
- Plant response rating, Bromegrass, Downy [5, 12]: 30
- Plant response rating, Bromegrass, Downy [5, 14]: 45
- Plant response rating, Bromegrass, Downy [5, 21]: 85
- Plant response rating, Bromegrass, Downy [5, 16]: 90
- Plant response rating, Bromegrass, Downy [5, 17]: 90
- Plant response rating, Sunflower [6, 22]: 0
- Plant response rating, Sunflower [6, 23]: 0
- Plant response rating, Sunflower [6, 20]: 0
- Plant response rating, Sunflower [6, 24]: 5
- Plant response rating, Nightshade [7, 22]: 95
- Plant response rating, Nightshade [7, 23]: 95
- Plant response rating, Nightshade [7, 20]: 95
- Plant response rating, Nightshade [7, 24]: 95
- Plant response rating, Goosegrass [8, 10]: 5
- Plant response rating, Goosegrass [8, 11]: 5
- Plant response rating, Goosegrass [8, 12]: 10
- Plant response rating, Goosegrass [8, 13]: 45
- Plant response rating, Goosegrass [8, 14]: 98
- Plant response rating, Goosegrass [8, 15]: 98
- Plant response rating, Goosegrass [8, 16]: 98
- Plant response rating, Goosegrass [8, 17]: 98
- Plant response rating, Windgrass [9, 18]: 50
- Plant response rating, Windgrass [9, 19]: 55
- Plant response rating, Windgrass [9, 20]: 90

SMILES: COc1nn(-c2ccc(C(F)(F)F)cc2)nc1Cc1ccnc(C(F)F)c1 [Compound 138]
- Plant response rating, Foxtail, Green [1, 10]: 35
- Plant response rating, Foxtail, Green [1, 11]: 85
- Plant response rating, Foxtail, Green [1, 12]: 90
- Plant response rating, Foxtail, Green [1, 13]: 90
- Plant response rating, Foxtail, Green [1, 14]: 90
- Plant response rating, Foxtail, Green [1, 15]: 95
- Plant response rating, Foxtail, Green [1, 16]: 95
- Plant response rating, Foxtail, Green [1, 17]: 95
- Plant response rating, Barley [2, 18]: 10
- Plant response rating, Barley [2, 19]: 30
- Plant response rating, Barley [2, 20]: 35
- Plant response rating, Barley ([2]; 250 g ai/ha, scale 0 to 100): 60
- Plant response rating, Canarygrass [3, 18]: 30
- Plant response rating, Canarygrass [3, 19]: 55
- Plant response rating, Canarygrass [3, 20]: 70
- Plant response rating, Canarygrass ([3]; 250 g ai/ha, scale 0 to 100): 90
- Plant response rating, Cocklebur [4, 10]: 65
- Plant response rating, Cocklebur [4, 11]: 70
- Plant response rating, Cocklebur [4, 12]: 85
- Plant response rating, Cocklebur [4, 13]: 85
- Plant response rating, Cocklebur [4, 14]: 5
- Plant response rating, Cocklebur [4, 15]: 5
- Plant response rating, Cocklebur [4, 16]: 15
- Plant response rating, Cocklebur [4, 17]: 15
- Plant response rating, Bromegrass, Downy [5, 10]: 40
- Plant response rating, Bromegrass, Downy [5, 11]: 45
- Plant response rating, Bromegrass, Downy [5, 12]: 50
- Plant response rating, Bromegrass, Downy [5, 13]: 65
- Plant response rating, Bromegrass, Downy [5, 14]: 10
- Plant response rating, Bromegrass, Downy [5, 15]: 30
- Plant response rating, Bromegrass, Downy [5, 16]: 60
- Plant response rating, Bromegrass, Downy [5, 17]: 80
- Plant response rating, Sunflower [6, 22]: 5
- Plant response rating, Sunflower [6, 23]: 10
- Plant response rating, Sunflower [6, 20]: 30
- Plant response rating, Sunflower [6, 24]: 30
- Plant response rating, Nightshade [7, 22]: 90
- Plant response rating, Nightshade [7, 23]: 95
- Plant response rating, Nightshade [7, 20]: 98
- Plant response rating, Nightshade [7, 24]: 98
- Plant response rating, Goosegrass [8, 10]: 5
- Plant response rating, Goosegrass [8, 11]: 25
- Plant response rating, Goosegrass [8, 12]: 50
- Plant response rating, Goosegrass [8, 13]: 80
- Plant response rating, Goosegrass [8, 14]: 100
- Plant response rating, Goosegrass [8, 15]: 100
- Plant response rating, Goosegrass [8, 16]: 100
- Plant response rating, Goosegrass [8, 17]: 100
- Plant response rating, Windgrass [9, 18]: 50
- Plant response rating, Windgrass [9, 19]: 50
- Plant response rating, Windgrass [9, 20]: 55
- Plant response rating, Windgrass ([9]; 250 g ai/ha, scale 0 to 100): 80
